In patent US7879876B2, “Sulfonamide derivatives and use thereof for the modulation of metalloproteinases” (Merck Serono SA, priority 2005, dated 2011):

Target: MMP13 (Homo sapiens, UniProt P45452)
Test: MMP13 inhibition (Table 1)
Assay type: biochemical
Conditions: @ 0.1 μM; read-out: percentage inhibition MMP13

Row | inhibition at 0.1 µM | SMILES
1 | 15% | O=CN(O)C(CCc1ccccc1)CS(=O)(=O)N1CCc2ccccc2C1 (stereo not shown) [Example 1, N-{1-[(3,4-dihydroisoquinolin-2(1H)-ylsulfonyl)methyl]-3-phenylpropyl}-N-hydroxyformamide]
2 | 6% | CCCCCC(CS(=O)(=O)N1CCc2ccccc2C1)N(O)C=O (stereo not shown) [Example 3, N-{1-[(3,4-dihydroisoquinolin-2(1H)-ylsulfonyl)methyl]hexyl}-N-hydroxyformamide]
3 | 0% | O=CN(O)C(CS(=O)(=O)N1CCc2ccccc2C1)C1CC1 (stereo not shown) [Example 4, N-[1-cyclopropyl-2-(3,4-dihydroisoquinolin-2(1H)-ylsulfonyl)ethyl]-N-hydroxyformamide]

Same assay, conditions: @ 5 μM; read-out: percentage inhibition MMP13

Row | inhibition at 5 µM | SMILES
4 | 97% | O=CN(O)C(CCc1ccccc1)CS(=O)(=O)N1CCc2ccccc2C1 (stereo not shown) [Example 1, N-{1-[(3,4-dihydroisoquinolin-2(1H)-ylsulfonyl)methyl]-3-phenylpropyl}-N-hydroxyformamide]
5 | 98% | CCCCCC(CS(=O)(=O)N1CCc2ccccc2C1)N(O)C=O (stereo not shown) [Example 3, N-{1-[(3,4-dihydroisoquinolin-2(1H)-ylsulfonyl)methyl]hexyl}-N-hydroxyformamide]
6 | 80% | O=CN(O)C(CS(=O)(=O)N1CCc2ccccc2C1)C1CC1 (stereo not shown) [Example 4, N-[1-cyclopropyl-2-(3,4-dihydroisoquinolin-2(1H)-ylsulfonyl)ethyl]-N-hydroxyformamide]

Tested on: IL-2-induced peritoneal recruitment of lymphocytes
Test: IL-2-induced peritoneal recruitment of lymphocytes
Assay type: in vivo, C3H/HEN mice
Conditions: Mus musculus, Lymphocyte, po; 3 mg/kg p.o., 15 min prior to IL-2; mice; 24 h after IL-2
Experimental: Administration of IL-2 intraperitoneally causes migration of lymphocytes into the intraperitoneal cavity. This is a model for the cellular migration that occurs during inflammation.
C3H/HEN mice (Elevage Janvier, France) were intraperitoneally injected with IL-2 (Serono Pharmaceutical Research Institute, 20 μg/kg, in saline). Compounds of the invention were suspended in 0.5% carboxymethylcellulose (CMC)/0.25% tween-20 and were administered by s.c. or p.o. route (10 ml/kg) 15 min prior to administration of IL-2.
Twenty-four hours after administration of IL-2, peritoneal white blood cells were collected by 3 successive lavages of the peritoneal cavity with 5 ml phosphate buffered saline (PBS)-1 mM EDTA (+4° C.). The suspension was centrifuged (1700 g×10 min at +4° C.). The resulting pellet was suspended in 1 ml PBS-1 mM EDTA.
Lymphocytes were identified and counted using a Beckman/Coulter counter.
The animals were divided into 6 groups (6 mice each group):
Group 1: (baseline) received 0.5% CMC/0.25% tween-20 (vehicle of compound of the invention) and saline (vehicle of IL-2);
Group 2: (control IL-2) received 0.5% CMC/0.25% tween-20 and injection of IL-2;
Group 3: Experimental group (Compound of the invention Dose 1) received a compound of the invention and injection of IL-2;
Group 4: Experimental group (Compound of the invention Dose 2) received a compound of the invention and injection of IL-2;
Group 5: Experimental group (Compound of the invention Dose 3) received a compound of the invention and injection of IL-2;
Group 6: Reference group received reference compound dexamethasone and injection of IL-2.
Inhibition of lymphocyte recruitment was calculated as follows:
Where Ly 1=Number of lymphocytes in group 1 (E3/μl), Ly 2=Number of lymphocytes in group 2 (E3/μl), Ly X=Number of lymphocytes in group X (3-5) (E3/μl).

Row | SMILES | inhibition in vivo at 3 mg/kg
7 | CC1(C)OC[C@H](C(CS(=O)(=O)N2Cc3ccccc3C2)N(O)C=O)O1 (stereo partly drawn) [Example 16, N-{2-(1,3-dihydro-2H-isoindol-2-ylsulfonyl)-1-[(4S)-2,2-dimethyl-1,3-dioxolan-4-yl]ethyl}-N-hydroxyformamide] | 44 ± 7%
8 | CC(C)c1ccc2c(c1)CCN(S(=O)(=O)CC([C@H]1COC(C)(C)O1)N(O)C=O)C2 (stereo partly drawn) [Example 18, N-{1-[(4S)-2,2-dimethyl-1,3-dioxolan-4-yl]-2-[(6-isopropyl-3,4-dihydroisoquinolin-2(1H)-yl)sulfonyl]ethyl}-N-hydroxyformamide] | 39 ± 7%
9 | CC1(C)OC[C@H](C(CS(=O)(=O)N2CCc3ccc(Cl)cc3C2)N(O)C=O)O1 (stereo partly drawn) [Example 19, N-{2-[(7-chloro-3,4-dihydroisoquinolin-2(1H)-yl)sulfonyl]-1-[(4S)-2,2-dimethyl-1,3-dioxolan-4-yl]ethyl}-N-hydroxyformamide] | 62 ± 9%
10 | O=CN(O)C(CS(=O)(=O)N1CCc2ccc(Cl)cc2C1)C1CCCC1 (stereo not shown) [Example 21, N-{2-[(7-chloro-3,4-dihydroisoquinolin-2(1H)-yl)sulfonyl]-1-cyclopentylethyl}-N-hydroxyformamide] | 43 ± 9%
11 | O=CN(O)C(CS(=O)(=O)N1CCc2cc(C(F)(F)F)ccc2C1)C1CCCC1 (stereo not shown) [Example 25, N-(1-cyclopentyl-2-{[6-(trifluoromethyl)-3,4-dihydro-isoquinolin-2(1H)-yl]sulfonyl}ethyl)-N-hydroxyformamide] | 37 ± 7%
12 | O=CN(O)[C@H](CS(=O)(=O)N1CCc2ccc(C(F)(F)F)cc2C1)[C@H]1CCCO1 [Example 27, N-hydroxy-N-((1S)-1-[(2R)-tetrahydrofuran-2-yl]-2-{[7-(trifluoromethyl)-3,4-dihydroisoquinolin-2(1H)-yl]sulfonyl}ethyl)formamide] | 46 ± 9%
13 | CC1(C)OC[C@H](C(CS(=O)(=O)N2CCc3ccc(C(F)(F)F)cc3C2)N(O)C=O)O1 (stereo partly drawn) [Example 28, N-(1-[(4S)-2,2-dimethyl-1,3-dioxolan-4-yl]-2-{[7-(trifluoro-methyl)-3,4-dihydroisoquinolin-2(1H)-yl]sulfonyl}ethyl)-N-hydroxyformamide] | 62 ± 5%
14 | O=CN(O)[C@H](CS(=O)(=O)N1Cc2ccc(F)cc2C1)[C@H]1CCCO1 [Example 29, N-{(1S)-2-[(5-fluoro-1,3-dihydro-2H-isoindol-2-yl)-sulfonyl]-1-[(2R)-tetrahydrofuran-2-yl]ethyl}-N-hydroxyformamide] | 29 ± 11%
15 | CC(C)(Cc1ccccc1)C(CS(=O)(=O)N1CCc2cc(C(F)(F)F)ccc2C1)N(O)C=O (stereo not shown) [Example 31, N-[2,2-dimethyl-3-phenyl-1-({[6-(trifluoromethyl)-3,4-dihydroisoquinolin-2(1H)-yl]sulfonyl}methyl)propyl]-N-hydroxyformamide] | 31 ± 10%
16 | CCC(CC)C(CS(=O)(=O)N1CCc2cc(C(C)C)ccc2C1)N(O)C=O (stereo not shown) [Example 35, N-(2-ethyl-1-{[(6-isopropyl-3,4-dihydroisoquinolin-2(1H)-yl)sulfonyl]methyl}butyl)-N-hydroxyformamide] | 50 ± 8%
17 | CC(C)(C)CC(CS(=O)(=O)N1CCc2cc(Cl)c(Cl)cc2C1)N(O)C=O (stereo not shown) [Example 42, N-(1-{[(6,7-dichloro-3,4-dihydroisoquinolin-2(1H)-yl)-sulfonyl]methyl}-3,3-dimethylbutyl)-N-hydroxyformamide] | 40 ± 10%
18 | O=CN(O)C(CO)CS(=O)(=O)N1CCc2cc(Cl)c(Cl)cc2C1 (stereo not shown) [Example 49, N-[2-[(6,7-dichloro-3,4-dihydroisoquinolin-2(1H)-yl)-sulfonyl]-1-(hydroxymethyl)ethyl]-N-hydroxyformamide] | 16 ± 12%
19 | CC(C)C(CS(=O)(=O)N1CCc2ccc(-c3ccc(F)cc3)cc2C1)N(O)C=O (stereo not shown) [Example 50, N-[1-({[7-(4-fluorophenyl)-3,4-dihydroisoquinolin-2(1H)-yl]sulfonyl}methyl)-2-methylpropyl]-N-hydroxyformamide] | 32 ± 4%
20 | CC(C)(CS(=O)(=O)N1CCc2ccc(Br)cc2C1)N(O)C=O [Example 56, N-{2-[(7-bromo-3,4-dihydroisoquinolin-2(1H)-yl)sulfonyl]-1,1-dimethylethyl}-N-hydroxyformamide] | 37 ± 8%
21 | O=CN(O)C(COCc1ccccc1)CS(=O)(=O)N1CCc2ccc(C(F)(F)F)cc2C1 (stereo not shown) [Example 59, N-[2-(benzyloxy)-1-({[7-(trifluoromethyl)-3,4-dihydro-isoquinolin-2(1H)-yl]sulfonyl}methyl)ethyl]-N-hydroxyformamide] | 55 ± 9%
22 | O=CN(O)C(COc1ccccc1)CS(=O)(=O)N1CCc2ccc(Cl)cc2C1 (stereo not shown) [Example 61, N-[2-[(7-chloro-3,4-dihydroisoquinolin-2(1H)-yl)sulfonyl]-1-(phenoxymethyl)ethyl]-N-hydroxyformamide] | 45 ± 9%
23 | O=CN(O)C1(CS(=O)(=O)N2CCc3ccc(Cl)cc3C2)CCCC1 [Example 62, N-(1-{[(7-chloro-3,4-dihydroisoquinolin-2(1H)-yl)-sulfonyl]methyl}cyclopentyl)-N-hydroxyformamide] | 20 ± 9%
24 | O=CN(O)C(CS(=O)(=O)N1CCc2ccc(-c3ccsc3)cc2C1)C1CCCC1 (stereo not shown) [Example 68, N-(1-cyclopentyl-2-{[7-(3-thienyl)-3,4-dihydroisoquinolin-2(1H)-yl]sulfonyl}ethyl)-N-hydroxyformamide] | 33 ± 7%
25 | O=CN(O)C(CS(=O)(=O)N1Cc2ccccc2C1)C1CC1 (stereo not shown) [Example 72, N-[1-cyclopropyl-2-(1,3-dihydro-2H-isoindol-2-ylsulfonyl)-ethyl]-N-hydroxyformamide] | 41 ± 7%
26 | O=CN(O)C(CS(=O)(=O)N1CCc2ccc(-c3ccc(F)cc3)cc2C1)C1CC1 (stereo not shown) [Example 75, N-(1-cyclopropyl-2-{[7-(4-fluorophenyl)-3,4-dihydro-isoquinolin-2(1H)-yl]sulfonyl}ethyl)-N-hydroxyformamide] | 26 ± 11%
27 | O=CN(O)C(CCC(F)(F)F)CS(=O)(=O)N1CCc2ccc(Cl)cc2C1 (stereo not shown) [Example 76, N-(1-{[(7-chloro-3,4-dihydroisoquinolin-2(1H)-yl)-sulfonyl]methyl}-4,4,4-trifluorobutyl)-N-hydroxyformamide] | 45 ± 11%
28 | O=CN(O)C(CS(=O)(=O)N1CCc2ccc(-c3ccncc3)cc2C1)C1CCCC1 (stereo not shown) [Example 79, N-{1-cyclopentyl-2-[(7-pyridin-4-yl-3,4-dihydroisoquinolin-2(1H)-yl)sulfonyl]ethyl}-N-hydroxyformamide] | 43 ± 10%
